{
  "source": "ChEMBL document CHEMBL1129671",
  "about": "“Substituted (pyrroloamino)pyridines: potential agents for the treatment of Alzheimer's disease” (J Med Chem, 1996)",
  "key": {"Mus musculus": {"test_system": "Mus musculus", "assay": "Antagonistic activity against scopolamine-induced behavioral deficits in mice by subcutaneous administration at a concentration of 0.16 mg/kg", "format": "functional"}, "[1]": {"molecular_target": "T1, Adrenergic receptor alpha-2 (Rattus norvegicus, UniProt P22086+P19328+P22909)", "T1 sequence (P22086 whole entry)": "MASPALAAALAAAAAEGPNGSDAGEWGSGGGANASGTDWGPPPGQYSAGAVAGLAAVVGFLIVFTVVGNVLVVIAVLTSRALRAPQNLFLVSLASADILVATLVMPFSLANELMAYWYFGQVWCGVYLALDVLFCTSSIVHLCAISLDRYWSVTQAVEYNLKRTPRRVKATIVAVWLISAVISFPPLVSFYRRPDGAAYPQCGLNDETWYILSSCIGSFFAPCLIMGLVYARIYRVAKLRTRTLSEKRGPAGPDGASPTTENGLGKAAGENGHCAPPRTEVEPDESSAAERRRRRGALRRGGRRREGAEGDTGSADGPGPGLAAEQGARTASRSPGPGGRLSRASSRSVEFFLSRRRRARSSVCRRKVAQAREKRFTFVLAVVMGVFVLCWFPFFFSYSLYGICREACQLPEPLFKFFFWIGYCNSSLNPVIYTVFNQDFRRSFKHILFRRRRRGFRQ", "T1 sequence (P19328 whole entry)": "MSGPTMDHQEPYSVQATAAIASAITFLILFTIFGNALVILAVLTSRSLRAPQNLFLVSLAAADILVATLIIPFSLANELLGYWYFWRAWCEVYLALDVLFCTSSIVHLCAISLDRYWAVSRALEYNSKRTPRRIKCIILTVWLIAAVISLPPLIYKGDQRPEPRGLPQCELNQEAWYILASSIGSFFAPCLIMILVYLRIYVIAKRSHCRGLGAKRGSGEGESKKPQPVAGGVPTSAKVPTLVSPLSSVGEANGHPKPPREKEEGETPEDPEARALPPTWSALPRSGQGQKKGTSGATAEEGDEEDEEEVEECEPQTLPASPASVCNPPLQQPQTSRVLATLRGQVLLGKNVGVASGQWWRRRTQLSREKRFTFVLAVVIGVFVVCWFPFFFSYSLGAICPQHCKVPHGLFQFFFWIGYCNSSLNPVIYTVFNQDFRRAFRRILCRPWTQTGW", "T1 sequence (P22909 whole entry)": "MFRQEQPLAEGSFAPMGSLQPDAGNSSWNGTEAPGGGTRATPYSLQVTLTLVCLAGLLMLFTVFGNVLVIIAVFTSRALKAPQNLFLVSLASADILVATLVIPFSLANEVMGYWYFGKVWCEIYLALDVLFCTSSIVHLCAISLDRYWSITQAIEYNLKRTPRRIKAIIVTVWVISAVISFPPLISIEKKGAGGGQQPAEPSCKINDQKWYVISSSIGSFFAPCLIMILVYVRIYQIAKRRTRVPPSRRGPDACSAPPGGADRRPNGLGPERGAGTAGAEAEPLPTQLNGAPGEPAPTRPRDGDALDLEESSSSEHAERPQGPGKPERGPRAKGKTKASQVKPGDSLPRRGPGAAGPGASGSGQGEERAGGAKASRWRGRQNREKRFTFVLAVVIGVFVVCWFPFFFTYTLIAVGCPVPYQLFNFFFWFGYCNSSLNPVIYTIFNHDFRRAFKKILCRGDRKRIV", "assay": "Compound was tested for inhibition of [3H]yohimbine against Alpha-2 adrenergic receptor from rat cortical membranes using in vitro adrenergic receptor binding assay.", "format": "cell membranes, Membrane"}, "Rattus norvegicus [2]": {"organism": "Rattus norvegicus", "assay": "Compound was tested for inhibition of [3H]5-HT against rat whole brain using in vitro biogenic amine uptake assay using rat brain synaptosomes.", "format": "functional"}, "Rattus norvegicus [3]": {"organism": "Rattus norvegicus", "assay": "Compound was tested for inhibition of [3H]norepinephrine against rat whole brain using in vitro biogenic amine uptake assay using rat brain synaptosomes.", "format": "functional"}, "[4]": {"molecular_target": "T2, Adrenergic receptor alpha-1 (Rattus norvegicus, UniProt P15823+P23944+P43140)", "T2 sequence (P15823 whole entry)": "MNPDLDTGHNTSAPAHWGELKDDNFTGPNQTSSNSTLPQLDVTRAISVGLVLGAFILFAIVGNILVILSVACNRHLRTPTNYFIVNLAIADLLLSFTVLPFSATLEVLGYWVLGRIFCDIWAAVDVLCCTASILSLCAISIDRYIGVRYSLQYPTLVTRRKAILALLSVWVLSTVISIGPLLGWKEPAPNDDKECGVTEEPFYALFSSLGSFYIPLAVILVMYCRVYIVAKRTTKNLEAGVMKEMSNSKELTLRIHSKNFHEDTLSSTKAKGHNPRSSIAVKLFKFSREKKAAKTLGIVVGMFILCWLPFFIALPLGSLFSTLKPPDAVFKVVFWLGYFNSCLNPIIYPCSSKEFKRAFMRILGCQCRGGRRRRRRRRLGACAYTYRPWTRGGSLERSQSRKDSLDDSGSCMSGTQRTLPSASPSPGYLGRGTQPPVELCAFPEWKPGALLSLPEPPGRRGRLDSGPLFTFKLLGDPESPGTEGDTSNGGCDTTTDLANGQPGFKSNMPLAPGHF", "T2 sequence (P23944 whole entry)": "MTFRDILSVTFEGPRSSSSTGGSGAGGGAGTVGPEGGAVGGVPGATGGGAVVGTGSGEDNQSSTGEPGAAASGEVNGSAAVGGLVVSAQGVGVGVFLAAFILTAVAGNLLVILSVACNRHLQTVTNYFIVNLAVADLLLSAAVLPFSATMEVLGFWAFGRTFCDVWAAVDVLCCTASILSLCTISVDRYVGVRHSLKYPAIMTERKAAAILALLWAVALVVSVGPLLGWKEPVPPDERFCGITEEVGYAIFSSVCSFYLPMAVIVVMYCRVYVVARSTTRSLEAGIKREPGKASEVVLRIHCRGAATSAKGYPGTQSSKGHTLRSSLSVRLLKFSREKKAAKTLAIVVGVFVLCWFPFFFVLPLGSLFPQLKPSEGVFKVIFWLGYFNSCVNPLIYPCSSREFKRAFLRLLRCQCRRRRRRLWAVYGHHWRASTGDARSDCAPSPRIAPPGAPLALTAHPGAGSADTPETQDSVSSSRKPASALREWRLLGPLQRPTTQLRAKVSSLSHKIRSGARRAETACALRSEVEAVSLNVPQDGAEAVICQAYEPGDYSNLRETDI", "T2 sequence (P43140 whole entry)": "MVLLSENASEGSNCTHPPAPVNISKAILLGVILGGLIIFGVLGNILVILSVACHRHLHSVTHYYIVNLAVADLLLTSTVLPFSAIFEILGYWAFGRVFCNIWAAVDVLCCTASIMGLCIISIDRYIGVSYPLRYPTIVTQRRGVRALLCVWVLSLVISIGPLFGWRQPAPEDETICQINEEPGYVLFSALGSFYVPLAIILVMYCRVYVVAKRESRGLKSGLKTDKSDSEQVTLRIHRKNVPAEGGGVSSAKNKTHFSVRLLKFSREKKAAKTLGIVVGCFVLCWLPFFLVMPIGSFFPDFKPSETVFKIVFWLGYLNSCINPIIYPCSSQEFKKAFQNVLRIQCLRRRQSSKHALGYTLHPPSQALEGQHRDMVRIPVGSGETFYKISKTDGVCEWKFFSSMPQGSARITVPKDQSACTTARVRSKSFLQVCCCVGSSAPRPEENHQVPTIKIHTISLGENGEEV", "assay": "Compound was tested for inhibition of [3H]WB-4101 against Alpha-1 adrenergic receptor from rat whole brain membranes using in vitro adrenergic receptor binding assay.", "format": "cell membranes, Membrane"}},
  "data": [
    {"smiles": "C=Cc1cccn1N(C)c1ccncc1", "values": [
      {"measurement": "Response", "setting": "Mus musculus", "result": 27, "unit": "%"},
      {"measurement": "IC50", "setting": "[1]", "result": 0.95, "unit": "µM"},
      {"measurement": "IC50", "setting": "Rattus norvegicus [2]", "result": "> 20", "unit": "µM"},
      {"measurement": "IC50", "setting": "Rattus norvegicus [3]", "result": 14, "unit": "µM"},
      {"measurement": "IC50", "setting": "[4]", "result": 5.9, "unit": "µM"}
    ]}
  ]
}
